Test results: US6790824B1, “Cytokines having neurotrophic activity” (Biopharm Gesellschaft zur biotechnologischen Entwicklung …, priority 1997, dated 2004)

Tests used:
Format in all cases: cell-based
[1] = test system: chick ciliary ganglionic (CG) neurons; assay: Survival of embryonic chick ciliary ganglionic (CG) neurons, 24 h, counting of surviving neurons; settings: for relative potency of TGF-β isoforms in the synergism with GDNF: not shown; for CG neuron survival with further addition of TGF-β: TGF-β 2.5 ng/ml, CNTF non-saturating, OSM, LIF, IL-6 at 10 ng/ml; for support of CG neuron survival by the single cytokine: at 10 ng/ml, without TGF-β
Protocol: (§1) Embryonic chick ciliary (CG), dorsal root (DRG), and sympathetic (SG) ganglia at embryonic day(s) (E) 8, 10, and 12, were dissected, freed from nerve roots and connective tissue and collected in CME. Ganglia were incubated in trypsin (ICN), washed and dissociated by trituration using fire-polished Pasteur pipettes. Cultures were set up in 96-well microtiter plates (Costar, A/2), precoated with poly-L-ornithine and laminin at a density of 1,200-1,500 cells/well in DMEM supplemented with N1 additives, 0.25% BSA, and 0.1% PSN (DME/N1) and incubated at 37° C. in a 5% CO2 incubator.
(§2) At appropriate times (CG: 24 h, DRG: 48 h, SG: 72 h) cultures were fixed by addition of 2.5% glutardialdehyde in phosphate buffered saline (PBS). Numbers of surviving neurons were determined by direct counting of 30% of the surface area using phase contrast microscopy.
Phosphatidylinositol-specific phospholipase C (PIPLC) is an enzyme that specifically cleaves glycosyl-phosphatidylinositol (GPI) linkages. Embryonic chick ciliary ganglionic neurons (E8) were isolated and seeded as described before. Neurons were incubated for 1 h at 37° C. with 1) 100 mU PIPLC or II) 100 mU PIPLC+2 ng/ml TGFβ or III) without enzyme and then growth factors were added. The number of surviving neurons was determined 24 h later.

[2] = test system: embryonic chicken dorsal root ganglia (DRG) neurons; assay: Survival of dissociated embryonic chick dorsal root ganglia (DRG) neurons, 48 h, counting of surviving neurons; settings: for effect on DRG neuron survival when added together with GDF-5: factor at saturating concentration plus GDF-5 20 ng/ml, E8, 48 h
Protocol: Dissociated cultures of embryonic chicken dorsal root ganglia (DRG) were generated as described in details by Krieglstein and Unsicker (Neurochem. Res., 21(7) (1996) 843-850). Briefly, DRGs from white Leghorn chick embryos (day 8) were dissected in Ca^2+-Mg^2+ free Hanks' balanced salt solution. After incubation in 0.08% trypsin for 15 min ganglia were dissociated by trituration. Cells were seeded in polyomithin-laminin coated 96-well microtiter plates (A/2 Costar) at a density of 1,200 cells/well. Growth factors were applied at the time of plating in a final volume of […] Dulbecco's Modified Eagle's Medium supplemented with 0.25% bovine serum albumin, N1 additives and 100 U/ml penicillin. As a positive control, nerve growth factor (NGF) was used at the saturating concentration of 5 ng/ml. After 48 h of incubation at 37° C. in a humidified atmosphere containing 5% CO2, cultures were fixed with 2.5% glutaraldehyde. Neuronal cells were identified by their phase-bright and neurite-bearing morphologies and counted within 30% of the total surface area using phase contrast microscopy. In the first set of experiments we tested the survival promoting effect of several growth factors of the bone morphogenetic protein family.
as §1, §2
Dissociated cultures of embryonic chicken dorsal root ganglia (DRGs) were generated as described in details by Krieglstein and Unsicker (Dev. Brain. Rees. 93 (1996) 10-17). Briefly, DRGs were dissected in Ca^2+-Mg^2+ free Hank's balanced salt solution (CMF). After incubation in 0.08% trypsin (BioWhittaker) for 15 min, ganglia were dissociated by gentle trituration using fire-polished Pasteur pipettes. Cells in suspension (neuron/non-neuron ratio 1:2) were seeded in polyomithin-laminin coated 96-well microtiter plates (A/2 Costar) at a density of 1,200 cells/well. Growth factors were applied at the time of plating in a final volume of 50 μl Dulbecco's Modified Eagle's Medium supplemented with 0.25% bovine serum albumin, N1 additives (Bottenstein et al., Exp. Cell Res. 125 (1980) 183-190) and 100 U/ml penicillin. As a positive control, nerve growth factor (NGF) was used at the saturating concentration of 10 ng/ml. After 48 h of incubation at 37° C. in a humidified atmosphere containing 5% CO2, cultures were fixed with 2.5% glutaraldehyde in phosphate buffered saline (PBS). Neuronal cells were identified by their phase-bright and neurite-bearing morphologies and counted within 30% of the total surface area using phase contrast microscopy. All experiments were performed in at least triplicate in two independent experiments. Data are presented as mean±SEM. Statistical comparisons were made with student's double t-test, ANOVA and MicrocalOrigin software. Differences were considered statistically significant at *P<0.05, **P<0.01, **P<0.001.

[3] = test system: chick sympathetic ganglionic (SG) neurons; assay: Survival of embryonic chick sympathetic ganglionic (SG) neurons, 72 h, counting of surviving neurons; settings: E8, serum-free, factor added by itself
Protocol: as §1, §2

[4] = test system: dopaminergic neurons in the ventral midbrain (mesencephalic cultures E14/DIV8); assay: Survival of TH-immunoreactive neurons in mesencephalic cultures (E14/DIV8) treated with FGF-2; settings: FGF-2 10 ng/ml, 8 days in culture
Protocol: FIG. 12 depicts the ffect of neutralizing endogenous TGF-β in mesencephalic neuron cul-tures. Numbers of surviving TH-immunoreactive neurons of mesencephalic cultures (E14/DIV8) after 8 days in culture treated with FGF-2 (10 ng/ml), medium only (control), in presence or absence of neutralizing antibodies to TGF-β1/-β2/-β3 (10 μg/ml). Data are given as mean±SEM (n=3), P-values are ***P<0.001 for increased survival as compared with control cultures and +P<0.05 or +++P<0.001 for decreased survival following antibody treatment.
Fibroblast growth factor (FGF)-2 is known to act as a neurotrophic factor for dopaminergic neurons in the ventral midbrain. […] As TGF-β is known to be a product of astroglial cells, it was tested whether TGF-β-neutralizing antibodies can abolish the neurotrophic effect of FGF-2 on cultured neurons derived from the embryonic midbrain floor.

[5] = test system: rat embryonic mesencephalic dopaminergic neurons (E14); assay: Survival of rat embryonic mesencephalic dopaminergic neurons, count of tyrosine hydroxylase (TH) immunoreactive neurons after 8 days; settings: GDNF 10 ng/ml, TGF-β3 2 ng/ml, 8 days in culture
Protocol: FIG. 8 depicts the survival promoting effect of GDNF on rat embryonic mesencephalic dopaminergic neurons (E14) is dependent on the presence of TGF-β. Dissociated cultures were treated with GDNF (10 ng/ml), with GDNF in the presence of anti-TGF-β1, -β2, -β3 (10 μg/ml), with TGF-β3 (2 ng/ml) or without any growth factor added (control) for 8 days in culture. Numbers of dopaminergic neurons were determined by counting the numbers of tyrosine hydroxylase (TH) immunoreactive neurons.

[6] = PIPLC 0.1 U/ml prior to plating

## Phosphatidylinositol-specific phospholipase C [PIPLC, reference compound]
[1]; [6]
  effect of PIPLC pretreatment on the survival promoting effect of CNTF: effectively reduced the survival promoting effect of CNTF
  effect of PIPLC pretreatment on the survival promoting effect of FGF-2: without affecting the survival promoting effect of FGF-2
  effect of PIPLC pretreatment on the survival promoting effect of GDNF with TGF-β: significantly reduced the survival promoting effect of GDNF in its combination with TGF-β
[1]; PIPLC pretreatment with 2 ng/ml TGF-β1
  effect of PIPLC pretreatment in the presence of TGF-β on the survival promoting effect of GDNF: the survival promoting effect of GDNF was maintained

## TGF-β1: isoform of TGF-β
[2]; E8, serum-free, factor added by itself
  DRG neuron survival, single factor in serum-free medium: virtually no survival promoting effect
[2]
  effect on DRG neuron survival when added together with GDF-5: synergistic or additive effects
[1]
  relative potency of TGF-β isoforms in the synergism with GDNF: equipotent
[3]
  SG neuron survival, single factor in serum-free medium: virtually no survival promoting effect

## TGF-β2: isoform of TGF-β
[1]
  relative potency of TGF-β isoforms in the synergism with GDNF: equipotent

## TGF-β3: isoform of TGF-β
[2]
  effect on DRG neuron survival when added together with GDF-5: synergistic or additive effects
[1]
  relative potency of TGF-β isoforms in the synergism with GDNF: equipotent

## epidermal growth factor [EGF]
[2]
  effect on DRG neuron survival when added together with GDF-5: synergistic or additive effects

## fibroblast growth factor-2 [FGF-2]
[2]
  effect on DRG neuron survival when added together with GDF-5: synergistic or additive effects
[4]
  increase in survival of the cells compared to the negative control (medium alone): 1.7 fold

## interleukin-6 [IL-6]
[1]
  CG neuron survival with further addition of TGF-β: did not increase the effects of these cytokines beyond background levels
  support of CG neuron survival by the single cytokine: did not support CG neurons

## leukemia inhibiting factor [LIF]
[1]
  CG neuron survival with further addition of TGF-β: did not increase the effects of these cytokines beyond background levels
  support of CG neuron survival by the single cytokine: did not support CG neurons

## transforming growth factor beta [TGF-β]
[1]; factor titrated in combination with 2 ng/ml of the other factor (GDNF/TGF-β), serum-free
  EC50 of the synergistic survival effect: 60 pg/mL
[1]; serum-free, each at the saturating amount of 2 ng/ml
  CG neuron survival, single factor in fully-defined medium: only marginal survival promoting effects
[5]
  survival of dopaminergic neurons relative to untreated control cultures: 200%

## transforming growth factor-a [TGF-α]
[2]
  effect on DRG neuron survival when added together with GDF-5: synergistic or additive effects
